Experimental data: patent publication US20160243051A1, “MONO DISPERSE POLYMER NANOPARTICLES, FUNCTIONALIZED NANOPARTICLES AND CONTROLLED FORMATION METHOD” (THE CURATORS OF THE UNIVERSITY OF MISSOURI, priority 2013, published 2016)

Test: Near infrared whole body florescent imaging, IVIS in-vivo imaging system
Settings: nude mice, 100 μl injected once, 0.15 mg/ml ICG
Experimental: Near Infrared based florescent imaging was carried out in nude mice through IVIS in-vivo imaging system. Briefly, 100 μl of samples of free ICG solution (0.15 mg/ml), PMMA-COOH (0.15 mg/ml of ICG present in nanoparticles) and Pegylated nanoparticles containing ICG (0.15 mg/ml) were injected once and their florescence were recorded at various time points as shown in FIGS. 8A-8C. […] There are three possible reasons for florescence quenching; namely, (i) degradation of free ICG physiological conditions, or (ii) rapid clearance of free ICG from the body, or (iii) a combination of both processes.

## CC1(C)C(/C=C/C=C/C=C/C=C2\N(CCCCS(=O)(=O)O)c3ccc4ccccc4c3C2(C)C)=[N+](CCCCS(=O)(=O)[O-])c2ccc3ccccc3c21 [free ICG, indocyanine green]
  time within which florescence diminished: ≤ 6 h
  time within which florescence was completely reduced to almost zero: ≤ 24 h
